Results from publication PMC4434051, “Biological evaluation of new potential anticancer agent for tumour imaging and radiotherapy by two methods: ^99mTc-radiolabelling and EPR spectroscopy” (Biotechnology, Biotechnological Equipment, 2014).

Key:
[1] = cited from earlier work; for half-life: formerly reported
[2] = cited from earlier work
[3] = cited from earlier work; remark: listed apart in the source
[4] = EPR organ and blood distribution of SLENU after i.p. administration; format: in vivo, male albino non-inbred mice; settings: i.p. 40 mg/kg
Method: For EPR experiments of SLENU (administrated i.p. at a dose of 40 mg/kg) blood samples were taken from the free-streaming blood of a male albino non-inbred mice and were collected into heparinized tubes containing PBS (pH = 7–7.4). […] Decay-corrected radioactivity in the blood was expressed as per cent injected dose in the blood, using the total blood volume as 7% of the body weight. Animal protocols have been approved by the Bulgarian/Indian Institutional Animals ethics Committee.
First biodistribution study for EPR experiments of SLENU in organ homogenates (liver, lungs, spleen, pancreas, brain, kidneys) and blood was evaluated in male albino non-inbred mice (35–40 g body weight, normal diet) as previously described by. Spin-labelled nitrosourea was administrated i.p. at a dose of 40 mg/kg. Animals were decapitated at appropriate time points following injection (10, 30, 60, 90 min and on 4 h, 24 h) and dissected. Tissues from lungs, liver, spleen, brain, kidneys, pancreas and blood were collected and processed immediately. For nitrosourea extraction, samples were weighed and homogenized in PBS (10% w/v) and centrifuged at 2000 g for 15 min. Supernatants were collected and the concentration of nitrosourea was evaluated by EPR spectroscopy. Before measuring the spin-labelled concentration, the samples were […] by K3[Fe(CN6)] (a spectroscopic broadening reagent), because of the fast reduction of the nitroxide function (10–20 min) in the tissues.

[5] = tested on: Lymphoma L1210; parameters: method as in PMID 19081996, PMID 19718801, PMID 20097958; settings: C57BL/Lymphoma L1210 bearing mice; cited from earlier work

Compound	half-life [1] [h]	carbamoylating activity ([2]; EPR research)	carbamoylating activity relative to CCNU ([2]; formerly reported)	τ0.5 [1] [min]	alkylating activity [3] [A560/mmol/L/h]	alkylating activity relative to CCNU ([3]; formerly reported)	time of maximum concentration in blood (EPR) ([4]; blood) [min]	time of maximum concentration in brain (EPR) ([4]; brain homogenate) [min]	time of maximum concentration in kidneys (EPR) ([4]; kidneys homogenate) [min]	time of maximum concentration in liver (EPR) ([4]; liver homogenate) [min]	time of maximum concentration in lungs (EPR) ([4]; lungs homogenate) [min]	time of maximum concentration in pancreas (EPR) ([4]; pancreas homogenate) [min]	time of maximum concentration in spleen (EPR) ([4]; spleen homogenate) [min]	presence of spin-labelled nitrosourea in tissues (EPR) ([4]; within 24 h, all tissues studied)	optimal dose for anticancer activity [5] [mg/kg]
O=NN(CCCl)C(=O)NC1CCCCC1 [CCNU, 1-(2-chloroethyl)-3-cyclohexyl-1-nitrosourea, reference compound]	0.9														
CCN(N=O)C(=O)NC1CC(C)(C)N([O])C(C)(C)C1 [SLENU, 1-ethyl-1-nitroso-3-[4-(2,2,6,6-tetramethylpiperidine-1-oxyl)]-urea]	1.25	54.46 ± 0.17	high and comparable with that of CCNU	75	0.008	lower than that of CCNU	60	60	60	90	30	60	60	complete absence	45
